Experimental data taken from publication PMC7037862, “Tricyclic Nucleobase Analogs and Their Ribosides as Substrates and Inhibitors of Purine-Nucleoside Phosphorylases III. Aminopurine Derivatives” (Molecules, 2020).
Substitutions are numbered along the chain they refer to. Names and notes keep the numbering of the source. Read-outs that look alike come from different tables or passages of the source.

Legend:
[1] = target: T1, calf spleen PNP (wt) (Bos taurus, UniProt P55859); experiment: Enzymatic ribosylation with α-D-ribose-1-phosphate, calf PNP wild type; format: biochemical; conditions: for Vmax (Relative): ribosylation, relative to guanine ribosylation rate (=100); for ribosylation activity: trimeric calf spleen PNP, wild type
T1 construct: made in house; host or cells: E. coli
T1 sequence (P55859 1-289): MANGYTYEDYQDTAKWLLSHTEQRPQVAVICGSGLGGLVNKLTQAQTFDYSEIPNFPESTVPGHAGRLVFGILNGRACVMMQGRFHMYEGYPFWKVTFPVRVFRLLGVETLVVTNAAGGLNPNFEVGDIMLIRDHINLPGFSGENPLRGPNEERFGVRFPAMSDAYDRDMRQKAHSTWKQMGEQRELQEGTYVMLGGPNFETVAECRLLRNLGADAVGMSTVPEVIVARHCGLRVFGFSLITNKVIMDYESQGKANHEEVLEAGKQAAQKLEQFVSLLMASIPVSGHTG
Experimental: (§1) Recombinant E. coli PNP, calf spleen PNP, and their mutated forms were expressed in E. coli and purified according to the procedures described earlier. Enzyme concentrations were calculated per monomer.
(§2) Enzymatic ribosylation reactions were carried out in 1 mL cuvettes (pathlength 4 mm) in ~50 mM HEPES buffer, pH 7.3, using 0.5 mM R1P as a ribose source. Reactions were followed fluorimetrically (see Section 2.4). On a larger scale (2–4 mg), the reactions were run in Eppendorf tubes, volume 2–3 mL, using either R1P (3–10 mM) or 7-methylguanosine as ribose sources. Products were purified by semi-preparative HPLC, concentrated and the final solutions kept frozen. Their structure has been confirmed by NMR (see Section 2.4 and Supplementary Materials) and by MS: comp. 3: m/z = 292.10385, comp. 4: m/z = 292.10400, comp. 5: m/z = 292.10398, calculated for C12H13N5O4 + H: 292.10403. Phosphorolysis reactions were run in 40–50 mM phosphate buffer, pH 7.0 or 6.5, and followed spectrally or fluorimetrically. Kinetic parameters were calculated by standard methods.

[2] = Ionization constants (pKa), determined spectrophotometrically; format: physicochemical; conditions: phosphate and/or acetate buffers
Experimental: Fluorescence spectra were measured on a Varian Eclipse instrument (Varian Corp., Palo Alto, CA, USA), and UV absorption kinetic experiments were performed on a Cary 5000 (Varian Corp., Palo Alto, CA, USA) thermostated spectrophotometer. Fluorescence yields were determined relative to tryptophan (0.15) or 1,N^6-ethenoadenosine in water (0.56, see ref. [2]). Emission spectra were measured in semi-micro cuvettes, pathlength 4 mm, to diminish the inner-filter effect. Typical spectral resolution was 2.5 nm. The ionization constants (pKa values) were determined spectrophotometrically using 20–50 mM phosphate and/or acetate buffers.

[3] = target: T2, calf PNP N243D (Bos taurus, UniProt P55859, N243D); experiment: Enzymatic ribosylation with α-D-ribose-1-phosphate, calf PNP N243D mutant; format: biochemical; conditions: for Vmax (Relative): ribosylation, relative to guanine ribosylation rate (=100)
T2 construct: made in house; host or cells: E. coli
T2 sequence (P55859 1-289 N243D): T1 sequence (P55859 1-289) with N243D
Experimental: as §1, §2

[4] = target: T3, E. coli PNP-wt (Escherichia coli, UniProt P0ABP8); experiment: Enzymatic ribosylation with α-D-ribose-1-phosphate, E. coli PNP wild type; format: biochemical; conditions: for Vmax (Relative): ribosylation, relative to guanine ribosylation rate (=100)
T3 construct: made in house; host or cells: E. coli
T3 sequence (P0ABP8 2-239 limits assumed): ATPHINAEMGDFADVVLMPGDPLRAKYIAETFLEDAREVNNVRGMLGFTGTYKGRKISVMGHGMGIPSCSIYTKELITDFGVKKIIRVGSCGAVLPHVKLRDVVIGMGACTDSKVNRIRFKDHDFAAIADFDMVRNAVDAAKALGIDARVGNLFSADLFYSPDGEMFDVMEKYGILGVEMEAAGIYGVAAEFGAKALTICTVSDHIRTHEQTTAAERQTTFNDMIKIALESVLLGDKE
Experimental: as §1, §2

[5] = target: T4, E. coli PNP D204N (Escherichia coli, UniProt P0ABP8, D205N); experiment: Enzymatic ribosylation with α-D-ribose-1-phosphate, E. coli PNP D204N mutant; format: biochemical
T4 construct: made in house; host or cells: E. coli
Experimental: as §1, §2

[6] = target: T5, E. coli PNP (Escherichia coli, UniProt P0ABP8); experiment: Fluorescence titration of E. coli PNP with ligand (enzyme-ligand complexes); format: binding; conditions: in the presence of phosphate, 40 mM, pH 7, 20 °C
T5 construct: made in house; host or cells: E. coli
Experimental: Additionally, the fluorescence excitation spectra reveal fluorescence energy transfer (FRET) from the protein to the complexed ligand, since they show marked enhancement in the region 270–280 nm, where the tyrosine residues of the PNP molecule absorb (Figure 10).
Figure 10 Changes in fluorescence excitation (a) and emission spectra (b), observed during the titration of E. coli PNP with N^2,3-etheno-2-aminopurine (2). […] Spectra of the free ligand (3.5 μM) are given for comparison (points). Excitation spectrum of the protein, monitored at 310 nm, is given in black. Conditions: 40 mM phosphate, pH 7, at 20 °C. Concentration of protein was 10.1 μM (per subunit); that of the titrant was 0 to 3.5 μM. Lower panels: Fluorescence difference spectra, calculated from data presented on panels (a) and (b), (c) difference excitation (observed at 380 nm), (d) difference emission spectra, excited at 275 nm. Substrate concentrations are 0.17, 0.69, 1.37, 2.36 and 3.31 μM.
Etheno-tubercidine (6) forms somewhat similar fluorescent complexes with the E. coli PNP. As shown below, FRET from the protein to the ligand is evident in the excitation spectra (Figure 11), and the ligand fluorescence blue shifted from 415 to ca. 390 nm (Figure 11b,c). In this case more than 60% of protein fluorescence is quenched when protein binding sites are saturated (cf. Figure 11). […]

[7] = target: T6, E. coli PNP S90A (Escherichia coli, UniProt P0ABP8, S91A); experiment: Enzymatic ribosylation with α-D-ribose-1-phosphate, E. coli PNP S90A mutant; format: biochemical
T6 construct: made in house; host or cells: E. coli
Experimental: as §1, §2

[8] = target: T7, calf PNP-wt (Bos taurus, UniProt P55859); experiment: Enzymatic phosphorolysis of ribosides, calf PNP wild type; format: biochemical; conditions: for Km: 40 mM phosphate buffer pH 7; for Vmax (Relative): relative to Vmax of guanosine phosphorolysis (=100)
T7 construct: made in house; host or cells: E. coli
T7 sequence (P55859 1-289): T1 sequence (P55859 1-289)
Experimental: as §1, §2

[9] = target: T3, E. coli PNP-wt; experiment: Enzymatic phosphorolysis of ribosides, E. coli PNP wild type; format: biochemical; conditions: for Vmax (Relative): relative to Vmax of guanosine phosphorolysis (=100)
Experimental: as §1, §2

[10] = substrate: c1cn2c(n1)ncc1nc[nH]c12; experiment: Enzymatic ribosylation with α-D-ribose-1-phosphate, E. coli PNP wild type; format: biochemical
Experimental: as §1, §2

[11] = substrate: c1cn2c(n1)ncc1nc[nH]c12; experiment: Enzymatic ribosylation with α-D-ribose-1-phosphate, calf PNP wild type; format: biochemical; conditions: other: ribosylation by R1P, calf-wt PNP, 40 mM HEPES pH 7
Experimental: as §1, §2

[12] = substrate: c1cn2c(n1)ncc1nc[nH]c12; experiment: Enzymatic ribosylation with α-D-ribose-1-phosphate, calf PNP N243D mutant; format: biochemical; conditions: other: ribosylation by R1P, 40 mM HEPES pH 7
Experimental: as §1, §2

[13] = substrate: OC[C@H]1O[C@@H](n2ccn3c4ncnc-4cnc23)[C@H](O)[C@@H]1O; experiment: Enzymatic phosphorolysis of ribosides, E. coli PNP wild type; format: biochemical; conditions: other: phosphorolysis, E. coli PNP-wt, 40 mM phosphate buffer pH 7
Experimental: as §1, §2

[14] = substrate: OC[C@H]1O[C@@H](n2ccn3cc4ncnc-4nc23)[C@H](O)[C@@H]1O; experiment: as above; format: biochemical; conditions: other: phosphorolysis, E. coli PNP-wt, 40 mM phosphate buffer pH 7
Experimental: as §1, §2

[15] = substrate: OC[C@H]1O[C@@H](n2ccn3c4ncnc-4cnc23)[C@H](O)[C@@H]1O; experiment: Enzymatic phosphorolysis of ribosides, calf PNP wild type; format: biochemical; conditions: other: phosphorolysis, calf PNP-wt, 40 mM phosphate buffer pH 7
Experimental: as §1, §2

[16] = acidic dissociation, read-out: pKa (acidic dissociation of the imidazole proton)
[17] = protonation, read-out: pKa (protonation)
[18] = ribosylation by R1P, 40 mM HEPES pH 7
[19] = ribosylation, relative to guanine ribosylation rate (=100)

## c1cn2cc3nc[nH]c3nc2n1 [Compound 1, 1,N^2-etheno-2-aminopurine]
[1]; ribosylation by R1P, calf-wt PNP, 40 mM HEPES pH 7
  Km: nr
[1]; calf-wt PNP
  Vmax (Relative): < 0.1
[1]
  ribosylation activity: apparently inactive
[2]; [16]
  pKa: 8.2
[2]; [17]
  pKa: 5.6
[3]; calf PNP N243D
  Vmax (Relative): traces
[4]
  Ribosylation Site: mostly N^2
  Vmax (Relative): ~1
[4]; [18]
  Km: < 10 µM

## c1cn2c(n1)ncc1nc[nH]c12 [Compound 2, N^2,3-etheno-2-aminopurine]
[1]; calf-wt PNP
  Ribosylation Site: predominantly N^2
  Vmax (Relative): ~5
[1]
  ribosylation activity: moderate rate
[2]; [16]
  pKa: ~9.5
[2]; [17]
  pKa: 5
[3]; calf PNP N243D
  Ribosylation Site: predominantly N^2
  Vmax (Relative): 29
[3]; calf PNP mutated in the active site (N243D)
  ribosylation activity: fairly rapidly ribosylated
[4]
  Ribosylation Site: predominantly N^2
  Vmax (Relative): 20
[5]
  Ribosylation Site: predominantly N^2
[5]; [18]
  Km: 12 µM
[5]; [19]
  Vmax (Relative): 30
[6]
  quenching of the protein fluorescence at 305 nm: moderate quenching
[7]
  Ribosylation Site: predominantly N^2
[7]; [18]
  Km: ~20 µM
[7]; [19]
  Vmax (Relative): 23

## OC[C@H]1O[C@@H](n2cnc3cn4ccnc4nc32)[C@H](O)[C@@H]1O [Compound 3, 1,N^2-etheno-2-aminopurine-N^9-β-D-riboside]
[8]
  Km: nr
  Vmax (Relative): <0.1
[9]; 40 mM phosphate buffer pH 7
  Km: nr
[9]
  Vmax (Relative): <1

## OC[C@H]1O[C@@H](n2ccn3cc4ncnc-4nc23)[C@H](O)[C@@H]1O [Compound 4, 1,N^2-etheno-2-aminopurine-N^2-β-D-riboside]
[8]
  Km: nr
  Vmax (Relative): <0.1
[2]; [17]
  pKa: ~6.3
[9]
  Vmax (Relative): 4

## OC[C@H]1O[C@@H](n2ccn3c4ncnc-4cnc23)[C@H](O)[C@@H]1O [Compound 5, N^2,3-etheno-2-aminopurine-N^2-β-D-riboside]
[8]
  Vmax (Relative): 3
[2]; [17]
  pKa: 6.15
[9]
  Vmax (Relative): 115

B1: E. coli PNP (wt) (Escherichia coli K-12) (protein)
chain: T3 sequence (P0ABP8 2-239 limits assumed)
notes: made in house; host or cells: E. coli
[10]; other: E. coli PNP and its mutated forms
  Km: 10 µM
[10]; other: ribosylation by R1P, E. coli-wt PNP, 40 mM HEPES pH 7, pH 7.0
  Km: 11 µM

B2: calf spleen PNP (wt) (Bos taurus) (protein)
chain: T1 sequence (P55859 1-289)
notes: as for B1
[11]
  Km: ~8 µM

B3: calf PNP N243D (Bos taurus; N243D) (protein)
chain: T1 sequence (P55859 1-289) with N243D
notes: as for B1
[12]
  Km: 110 µM

B4: E. coli PNP-wt (Escherichia coli K-12) (protein)
chain: T3 sequence (P0ABP8 2-239 limits assumed)
notes: as for B1
[13]
  Km: ~ 20 μM
[14]
  Km: 47 µM

B5: calf PNP-wt (Bos taurus) (protein)
chain: T1 sequence (P55859 1-289)
notes: as for B1
[15]
  Km: 4.6 µM
